The structures appear in SMILES notation.

Test [1] deals with T1, human 11β-HSD1 (Homo sapiens, UniProt P28845).
T1 construct: expressed in transfected cells; host or cells: CHO cells (microsomes)
Put plainly: Biological Test Example 1: inhibition of a microsomal preparation of 11β-HSD1 (SPA). It is filed as biochemical. To be noted: for inhibition at 0.1 µM: read-out: Average % inhibition at 100 nM.

For test [2], the target named is T1, human 11β-HSD1. Put plainly: Biological Test Example 4: inhibition of microsomal 11β-HSD1 in the presence of 50% human plasma. It is filed as biochemical. The note with it: examples; for IC50: 50% human plasma; for Shift: IC50 in Biological Test Example 4 divided by IC50 in Biological Test Example 1.
Setting [3] is: Biological Test Example 1, read-out: IC50 Range.
The mark [4] stands for this setting: Biological Test Example 1 IC50 (nM), examples.

T1 sequence (P28845 whole entry): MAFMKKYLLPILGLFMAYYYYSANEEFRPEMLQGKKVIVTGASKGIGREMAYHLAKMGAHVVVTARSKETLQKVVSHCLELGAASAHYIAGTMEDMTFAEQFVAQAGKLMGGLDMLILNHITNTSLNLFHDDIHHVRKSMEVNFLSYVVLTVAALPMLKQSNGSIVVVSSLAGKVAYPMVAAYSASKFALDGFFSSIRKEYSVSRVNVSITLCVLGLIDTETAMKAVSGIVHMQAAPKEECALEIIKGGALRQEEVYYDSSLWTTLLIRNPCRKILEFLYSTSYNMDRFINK

On to `CC(C)(O)C[C@]1(c2ccccc2)CCN([C@H]2CCCN(c3ncc(F)cn3)C2)C(=O)O1` [Example 7, (S)-3-((S)-1-(5-fluoropyrimidin-2-yl)piperidin-3-yl)-6-(2-hydroxy-2-methylpropyl)-6-phenyl-1,3-oxazinan-2-one], for which the IC50 – broadly, the point on the concentration scale where inhibition reaches its midpoint – is less than 100 nM on human 11β-HSD1 [1] (setting [3]), 6.1 nM against human 11β-HSD1 [1] (setting [4]) and 14.8 nM on human 11β-HSD1 [2]. For the same compound, the inhibition (usually the drop in the measured response relative to a control, in per cent) at 0.1 µM at human 11β-HSD1 [1] came to 89.5%. For the same compound, the Shift on human 11β-HSD1 [2] amounted to 2.4.

For `CC(C)(O)C[C@]1(c2ccccc2)CCN([C@H]2CCCN(c3ncccc3C(F)(F)F)C2)C(=O)O1` [Example 2, (S)-6-(2-hydroxy-2-methylpropyl)-6-phenyl-3-((S)-1-(3-(trifluoromethyl)pyridin-2-yl)piperidin-3-yl)-1,3-oxazinan-2-one], the IC50 at human 11β-HSD1 [1] (setting [3]) is less than 100 nM; against human 11β-HSD1 [1] (setting [4]), 22.6 nM; on human 11β-HSD1 [2], 210 nM. Further, the inhibition at 0.1 µM on human 11β-HSD1 [1] worked out at 77.8%. Besides, on human 11β-HSD1 [2], the Shift is listed as 9.3.

Consider `CC(C)(O)C[C@]1(c2ccccc2)CCN([C@H]2CCCN(c3ccc(C(F)(F)F)cn3)C2)C(=O)O1` [Example 4, (S)-6-(2-hydroxy-2-methylpropyl)-6-phenyl-3-((S)-1-(5-(trifluoromethyl)Pyridin-2-yl)piperidin-3-yl)-1,3-oxazinan-2-one], for which the half-maximal inhibitory concentration (IC50) at human 11β-HSD1 [1] (setting [3]) was less than 100 nM; on human 11β-HSD1 [1] (setting [4]), 4.1 nM; at human 11β-HSD1 [2] it was 21.6 nM. Also, the inhibition at 0.1 µM at human 11β-HSD1 [1] came to 89.8%. For the same compound, the Shift on human 11β-HSD1 [2] is given as 5.3.

As for `CC(C)(O)C[C@]1(c2ccccc2)CCN([C@H]2CCN(c3ncc(Cl)cn3)C2)C(=O)O1` [Example 14, (S)-3-((S)-1-(5-chloropyrimidin-2-yl)pyrrolidin-3-yl)-6-(2-hydroxy-2-methylpropyl)-6-phenyl-1,3-oxazinan-2-one], the IC50 at human 11β-HSD1 [1] (setting [3]) was less than 100 nM; against human 11β-HSD1 [1] (setting [4]), 3.5 nM; at human 11β-HSD1 [2], 7.8 nM. At human 11β-HSD1 [1], the inhibition at 0.1 µM came out at 93.8%. For the same compound, the Shift on human 11β-HSD1 [2] turned out to be 2.2.

As to `CC(C)(O)C[C@]1(c2ccccc2)CCN([C@H]2CCN(c3nccc(C(F)(F)F)n3)C2)C(=O)O1` [Example 23, (S)-6-(2-hydroxy-2-methylpropyl)-6-phenyl-3-((S)-1-(4-(trifluoromethyl)pyrimidin-2-yl)pyrrolidin-3-yl)-1,3-oxazinan-2-one], the half-maximal inhibitory concentration (IC50) at human 11β-HSD1 [1] (setting [3]) was less than 100 nM; on human 11β-HSD1 [1] (setting [4]), 5.8 nM; at human 11β-HSD1 [2], 52.8 nM. Besides, the inhibition at 0.1 µM at human 11β-HSD1 [1] worked out at 94.1%. Besides, the Shift at human 11β-HSD1 [2] stood at 9.2.

Consider `CC(C)(O)C[C@]1(c2ccccc2)CCN([C@H]2CCN(c3ccc(C(F)(F)F)cn3)C2)C(=O)O1` [Example 15, (S)-6-(2-hydroxy-2-methylpropyl)-6-phenyl-3-((S)-1-(5-(trifluoromethyl)pyridin-2-yl)pyrrolidin-3-yl)-1,3-oxazinan-2-one], for which the figures for the IC50 on human 11β-HSD1 [1] (setting [3]), on human 11β-HSD1 [1] (setting [4]) and on human 11β-HSD1 [2] were less than 100 nM, 4.3 nM and 37.6 nM, respectively. On human 11β-HSD1 [1], the inhibition at 0.1 µM amounted to 92.2%. The Shift at human 11β-HSD1 [2] amounted to 8.7.

As for `O=C1O[C@@](CCCO)(c2ccc(F)cc2)CCN1[C@H]1CCCN(c2ccc(C(F)(F)F)cn2)C1` [Example 16, (R)-6-(4-fluorophenyl)-6-(3-hydroxypropyl)-3-((S)-1-(5-(trifluoromethyl)pyridin-2-yl)piperidin-3-yl)-1,3-oxazinan-2-one], the values for the IC50 on human 11β-HSD1 [1] (setting [3]), against human 11β-HSD1 [1] (setting [4]) and on human 11β-HSD1 [2] were less than 100 nM, 1.4 nM and 14.4 nM, respectively. Also, the inhibition at 0.1 µM at human 11β-HSD1 [1] turned out to be 94.9%. Also, the Shift on human 11β-HSD1 [2] came out at 10.0.

For `Cc1nnc(N2CCC[C@H](N3CC[C@](CC(C)(C)O)(c4ccccc4)OC3=O)C2)cc1Cl` [Example 22, (S)-3-((S)-1-(5-chloro-6-methylpyridazin-3-yl)piperidin-3-yl)-6-(2-hydroxy-2-methylpropyl)-6-phenyl-1,3-oxazinan-2-one], the results for the IC50 at human 11β-HSD1 [1] (setting [3]) and against human 11β-HSD1 [1] (setting [4]) were 190 nM and greater than 100 nM, respectively. The inhibition at 0.1 µM on human 11β-HSD1 [1] was found to be 20.9%.

With `CNC(=O)c1ccc(N2CCC[C@H](N3CC[C@](CCCO)(c4ccc(F)cc4)OC3=O)C2)nc1` [Example 19, 6-((S)-3-((R)-6-(4-fluorophenyl)-6-(3-hydroxypropyl)-2-oxo-1,3-oxazinan-3-yl)piperidin-1-yl)-N-methylnicotinamide], the half-maximal inhibitory concentration (IC50) on human 11β-HSD1 [1] (setting [3]) was less than 100 nM; against human 11β-HSD1 [1] (setting [4]) it was 65.6 nM. In addition, on human 11β-HSD1 [1], the inhibition at 0.1 µM turned out to be 55.2%.

In the case of `CN(C)C(=O)c1ccc(N2CCC[C@H](N3CC[C@](CCCO)(c4ccc(F)cc4)OC3=O)C2)nc1` [Example 20, 6-((S)-3-((R)-6-(4-fluorophenyl)-6-(3-hydroxpropyl)-2-oxo-1,3-oxazinan-3-yl)piperidin-1-yl)-N,N-dimethylnicotinamide], the 50% inhibitory concentration (IC50) was less than 100 nM at human 11β-HSD1 [1] (setting [3]) and 27.4 nM against human 11β-HSD1 [1] (setting [4]). The inhibition at 0.1 µM at human 11β-HSD1 [1] amounted to 72.5%.

Consider `CC(C)(O)C[C@]1(c2ccccc2)CCN([C@H]2CCCN(c3cc(C(F)(F)F)ccn3)C2)C(=O)O1` [Example 3, (S)-6-(2-hydroxy-2-methylpropyl)-6-phenyl-3-((S)-1-(4-(trifluoromethyl)pyridin-2-yl)piperidin-3-yl)-1,3-oxazinan-2-one], for which the values for the IC50 on human 11β-HSD1 [1] (setting [3]), on human 11β-HSD1 [1] (setting [4]) and at human 11β-HSD1 [2] were less than 100 nM, 4.4 nM and 68.7 nM, respectively. Besides, the inhibition at 0.1 µM on human 11β-HSD1 [1] was 91.3%. Besides, the Shift on human 11β-HSD1 [2] is listed as 15.6.

Regarding `CC(C)(O)C[C@]1(c2ccccc2)CCN([C@H]2CCCN(c3cccc(C(F)(F)F)n3)C2)C(=O)O1` [Example 5, (S)-6-(2-hydroxy-2-methylpropyl)-6-phenyl-3-((S)-1-(6-(trifluoromethyl)pyridin-2-yl)piperidin-3-yl)-1,3-oxazinan-2-one], the IC50 was less than 100 nM at human 11β-HSD1 [1] (setting [3]) and 11.8 nM against human 11β-HSD1 [1] (setting [4]). At human 11β-HSD1 [1], the inhibition at 0.1 µM was 86%.

Regarding `COc1cnc(N2CCC[C@H](N3CC[C@](CC(C)(C)O)(c4ccccc4)OC3=O)C2)nc1` [Example 12, (S)-6-(2-hydroxy-2-methylpropyl)-3-((S)-1-(5-methoxypyrimidin-2-yl)piperidin-3-yl)-6-phenyl-1,3-oxazinan-2-one], the half-inhibitory concentration (IC50) was less than 100 nM at human 11β-HSD1 [1] (setting [3]), 4.3 nM on human 11β-HSD1 [1] (setting [4]) and 10.4 nM at human 11β-HSD1 [2]. Further, the inhibition at 0.1 µM on human 11β-HSD1 [1] came to 91.7%. For the same compound, the Shift at human 11β-HSD1 [2] turned out to be 2.4.

Turning to `COC(=O)c1cnc(N2CCC[C@H](N3CC[C@](CC(C)(C)O)(c4ccccc4)OC3=O)C2)nc1` [Example 10], the half-maximal inhibitory concentration (IC50) at human 11β-HSD1 [1] (setting [3]) was less than 100 nM; against human 11β-HSD1 [1] (setting [4]), 5.5 nM; on human 11β-HSD1 [2] it was 69.2 nM. Further, on human 11β-HSD1 [1], the inhibition at 0.1 µM was found to be 85.8%. Moreover, the Shift on human 11β-HSD1 [2] amounted to 12.7.
